Data on nine compounds can be found in patent US9388313B2, “Water-insoluble coloring compound, ink, thermal transfer recording sheet, and color filter resist composition” (CANON KABUSHIKI KAISHA, priority 2012, dated 2016).

Like-named read-outs stand apart in the source and are kept apart here.

Data set [1] is described as follows: Evaluation of solvent solubility of water-insoluble coloring compound (visual). The format is physicochemical. The following applies: organic solvent or mixture, thermodynamic from solid, room temperature. How it is done:
The solvent solubilities of Compounds (1), (4), (11), (18), (23), (26), and (28) as the water-insoluble coloring compounds and Comparative Compounds (1) and (2) were evaluated by dissolving 30 mg of each compound in 0.7 mL of each solvent, toluene, methanol, ethyl acetate, or chloroform, at room temperature, and visually observing each solution according to the following evaluation criteria:
B: suspended material slightly remained, and […]

The nature of data set [2]: Visual investigation of color filters. The following applies: cyclohexanone-based resist composition. How it is done:
Color filter resist composition (1) of the present invention was prepared by slowly adding 22 parts of Ink (A) to a solution of 6.7 parts of an acrylic copolymer composition (weight average molecular weight Mw: 10000) composed of 40% by mass of n-butyl methacrylate, 30% by mass of acrylic acid, and 30% by mass of hydroxyethyl methacrylate in monomer ratios, 1.3 parts of dipentaerythritol pentaacrylate, and 0.4 parts of 2-benzyl-2-dimethylamino-1-(4-morpholinophenyl)-butanone (photopolymerization initiator) in 96 parts of cyclohexanone, stirring the mixture at room temperature for 3 hours, and filtering the reaction solution through a filter of 1.5 μm pore size.
Color filter (1) was produced by spin-coating color filter resist composition (1) on a glass substrate and then drying at 90° C. for 3 min, exposure of the entire surface to light, and post-curing at 180° C.

[3] abbreviates: 30 mg in 0.7 mL chloroform, read-out: Solubility Chloroform.
[4] abbreviates: 30 mg in 0.7 mL ethyl acetate, read-out: Solubility Ethyl acetate.
[5] abbreviates: 30 mg in 0.7 mL methanol, read-out: Solubility Methanol.
[6] abbreviates: 30 mg in 0.7 mL toluene, read-out: Solubility Toluene.

On to `CCCCC(CC)CN(CC(CC)CCCC)S(=O)(=O)c1ccc(/N=N/c2c(O)[nH]c(=O)c(C#N)c2C)cc1` (centres unmarked) [compound 1, reference compound], for which the solubility in data set [1] (setting [3]), in data set [1] (setting [4]), in data set [1] (setting [5]) and in data set [1] (setting [6]) was less than 42.9 mg/mL in each case. In data set [2], the “solvent solubility (demonstrated by spin-coating uniformity)” value (“solvent solubility” for short) is on record as “poor solvent solubilities”.
In the case of `CCCCC(CC)CN(CC(CC)CCCC)C(=O)c1ccccc1/N=N/c1c(O)[nH]c(=O)c(C(=O)NC(C)(C)C)c1C` (centres unmarked) [Compound 23], the solubility in data set [1] (setting [3]), in data set [1] (setting [4]), in data set [1] (setting [5]) and in data set [1] (setting [6]) was more than 42.9 mg/mL each time.
As for `CCCCC(CC)CN(CC(CC)CCCC)S(=O)(=O)c1ccccc1/N=N/c1c(O)[nH]c(=O)c(C(=O)OCC)c1C` (centres unmarked) [Compound 4], the solubility in data set [1] (setting [3]), in data set [1] (setting [4]), in data set [1] (setting [5]) and in data set [1] (setting [6]) was more than 42.9 mg/mL throughout.
Regarding `CCCCC(CC)CN(CC(CC)CCCC)C(=O)c1ccc(/N=N/c2c(O)[nH]c(=O)c(C#N)c2C)cc1` (centres unmarked) [compound 2, reference compound], the solubility in data set [1] (setting [3]), in data set [1] (setting [4]), in data set [1] (setting [5]) and in data set [1] (setting [6]) was less than 42.9 mg/mL each time. The “solvent solubility” value in data set [2] is reported as “poor solvent solubilities”.
On to `CCOC(=O)c1c(C)c(/N=N/c2ccccc2C(=O)N(C2CCCCC2)C2CCCCC2)c(O)[nH]c1=O` [Compound 28], for which the solubility in data set [1] (setting [3]), in data set [1] (setting [4]), in data set [1] (setting [5]) and in data set [1] (setting [6]) was more than 42.9 mg/mL throughout.
Take `CCCCC(CC)CN(CC(CC)CCCC)C(=O)c1cccc(/N=N/c2c(O)[nH]c(=O)c(C(=O)OCC)c2C)c1` (centres unmarked) [Compound 11]: the solubility in data set [1] (setting [3]), in data set [1] (setting [4]), in data set [1] (setting [5]) and in data set [1] (setting [6]) was more than 42.9 mg/mL throughout. For the same compound, in data set [2], the “solvent solubility” value is recorded as “high solvent solubilities”.
For `CCCCCc1c(/N=N/c2ccccc2C(=O)N(CC(CC)CCCC)CC(CC)CCCC)c(O)[nH]c(=O)c1C(=O)N1CCCCC1` (centres unmarked) [Compound 26], the solubility in data set [1] (setting [3]), in data set [1] (setting [4]), in data set [1] (setting [5]) and in data set [1] (setting [6]) was more than 42.9 mg/mL in each case.
As for `CCCCC(CC)CN(CC(CC)CCCC)C(=O)c1ccc(/N=N/c2c(O)[nH]c(=O)c(C(=O)OCC)c2C)cc1` (centres unmarked) [Compound 18], the solubility in data set [1] (setting [3]), in data set [1] (setting [4]), in data set [1] (setting [5]) and in data set [1] (setting [6]) was more than 42.9 mg/mL each time. The “solvent solubility” value in data set [2] is recorded as “high solvent solubilities”.
For the compound `CCCCC(CC)CN(CC(CC)CCCC)C(=O)c1ccccc1/N=N/c1c(O)[nH]c(=O)c(C(=O)OCC)c1C` (centres unmarked) [Compound 1], the solubility in data set [1] (setting [3]), in data set [1] (setting [4]), in data set [1] (setting [5]) and in data set [1] (setting [6]) was more than 42.9 mg/mL throughout. In data set [2], the “solvent solubility” value was “high solvent solubilities”.

One may read the solubility as the concentration that dissolves in the medium under given conditions.
